Assay results taken from publication PMC6222902, “DPP-IV Inhibitory Potentials of Flavonol Glycosides Isolated from the Seeds of Lens culinaris: In Vitro and Molecular Docking Analyses” (Molecules : A Journal of Synthetic Chemistry and Natural …, 2018).

What was measured:
human recombinant DPP-IV = target: T1, human recombinant DPP-IV (Homo sapiens, UniProt P27487); experiment: DPP-IV inhibitor screening assay kit (Cayman), fluorogenic substrate Gly-Pro-AMC; assay type: biochemical; conditions: mean ± SD of three independent experiments
T1 construct: purchased Cayman Chemical
Experimental: To the best of our knowledge, no prior studies examined the in vitro DPP-IV-inhibitory effects of 1–3, although the protein-ligand complex for 3 was examined via molecular docking analysis, using Discovery Studio 3.0 and Meta-Pocket (http://projects.biotec.tu-dresden.de/metapocket/).
DPP-IV activity was analyzed using a DPP-IV inhibitor screening assay kit (Cayman Chemical, Ann Arbor, MI, USA), which provided a fluorescence-based method for screening DPP-IV inhibitors. The assay used the fluorogenic substrate, Gly-Pro-Aminomethylcoumarine (AMC), to measure DPP-IV activity. Cleavage of the peptide bond by DPP released the free AMC group, resulting in fluorescence that could be analyzed using an excitation wavelength of 350–360 nm and an emission wavelength of 450–465 nm.
The tested compounds were initially dissolved in DMSO to produce 50 mM stock solution, and subsequently diluted to the required concentrations using DMSO, and then they were added to a 96-well plate in final volume of 10 μL and a final concentration of 50 μM. The assay procedure is described briefly according to the manufacturer’s protocols as follows: Diluted assay buffer (30 μL) and diluted enzyme solution (10 μL) were added to the 96-well plate containing 10 μL of solvent (blank) or solvent-dissolved test compounds. The reaction was initiated by adding 50 μL of a diluted substrate solution, and the plate was incubated for 30 min at 37 °C. After incubation, fluorescence with an excitation wavelength of 350 nm and an emission wavelength of 450 nm was monitored using a plate reader (TECAN, Männedorf, Switzerland). The percent inhibition was expressed as ([DPP-IV level of vehicle–treated control–DPP-IV level of test samples]/DPP-IV level of vehicle-treated control) × 100.

DPP-IV [1] = conditions: DPP-IV Glo Protease Assay kit (Promega); cited from earlier work
DPP-IV [2] = system: DPP-IV; design: method as in PMID 22410395; conditions: cited from earlier work

T1 sequence (P27487 whole entry): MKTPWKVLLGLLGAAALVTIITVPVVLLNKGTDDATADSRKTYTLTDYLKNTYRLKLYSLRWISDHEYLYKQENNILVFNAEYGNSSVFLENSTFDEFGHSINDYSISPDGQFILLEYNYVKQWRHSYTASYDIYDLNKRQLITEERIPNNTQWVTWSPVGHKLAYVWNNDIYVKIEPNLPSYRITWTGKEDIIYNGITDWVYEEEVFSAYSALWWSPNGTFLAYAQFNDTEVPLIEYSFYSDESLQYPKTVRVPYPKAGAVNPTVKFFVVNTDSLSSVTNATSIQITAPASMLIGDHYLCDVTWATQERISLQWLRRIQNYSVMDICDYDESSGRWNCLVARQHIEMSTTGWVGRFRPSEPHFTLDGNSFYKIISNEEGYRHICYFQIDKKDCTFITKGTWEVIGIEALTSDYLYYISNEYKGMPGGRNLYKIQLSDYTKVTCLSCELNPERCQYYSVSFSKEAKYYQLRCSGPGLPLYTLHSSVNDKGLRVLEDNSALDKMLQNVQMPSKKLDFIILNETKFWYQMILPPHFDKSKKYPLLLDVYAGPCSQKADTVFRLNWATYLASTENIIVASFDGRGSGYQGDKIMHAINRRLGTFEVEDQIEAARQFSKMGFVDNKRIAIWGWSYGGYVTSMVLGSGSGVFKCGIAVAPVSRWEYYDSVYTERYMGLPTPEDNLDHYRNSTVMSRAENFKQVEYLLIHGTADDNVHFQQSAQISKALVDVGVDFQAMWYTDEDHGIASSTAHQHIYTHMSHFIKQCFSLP

## CC1OC(Oc2cc(O)c3c(=O)c(OC4OC(CO)C(O)C(O)C4OC4OC(CO)C(O)C(O)C4O)c(-c4ccc(O)cc4)oc3c2)C(O)C(O)C1O (stereo not drawn) [Compound 1, kaempferol-3-O-β-gulcopyranosyl-(1→2)-β-galactopyranosyl-7-O-α-rhamnopyranoside]
Human recombinant DPP-IV
  IC50: 27.9 ± 1.29 µM

## CC1OC(OCC2OC(Oc3c(-c4ccc(O)cc4)oc4cc(OC5OC(C)C(O)C(O)C5O)cc(O)c4c3=O)C(OC3OC(CO)C(O)C(O)C3O)C(O)C2O)C(O)C(O)C1O (stereo not drawn) [Compound 2, kaempferol-3-O-β-gulcopyranosyl-(1→2)-[α-rhamnopyranosyl(1→6)]-β-galactopyranosyl-7-O-α-rhamnopyranoside]
Human recombinant DPP-IV
  IC50: 36.5 ± 0.78 µM

## CC1OC(OCC2OC(Oc3c(-c4ccc(O)cc4)oc4cc(OC5OC(C)C(O)C(O)C5O)cc(O)c4c3=O)C(O)C(O)C2O)C(O)C(O)C1O (stereo not drawn) [Compound 3, kaempferol-3-O-α-rhamnosyl(1→6)-O-β-galactopyranoside-7-O-α-rhamnopyranoside]
Human recombinant DPP-IV
  IC50: 37 ± 1.4 µM

## O=c1c(O)c(-c2ccc(O)cc2)oc2cc(O)cc(O)c12 [Compound 4, kaempferol]
DPP-IV [1]
  IC50: 0.49 ± 0.02 µM
Human recombinant DPP-IV
  IC50: 51.7 ± 4.83 µM

## O=c1c(O[C@@H]2O[C@H](CO)[C@@H](O)[C@H](O)[C@H]2O)c(-c2ccc(O)c(O)c2)oc2cc(O)cc(O)c12 [isoquercitrin]
DPP-IV [2]
  in vivo bioactivities as a DPP-IV inhibitor: strong in vivo bioactivities

## C[C@@H]1O[C@@H](O[C@H]2[C@H](Oc3cc(O)c4c(c3)O[C@H](c3ccc(O)cc3)CC4=O)O[C@H](CO)[C@@H](O)[C@@H]2O)[C@H](O)[C@H](O)[C@H]1O [naringin]
DPP-IV [2]
  in vivo bioactivities as a DPP-IV inhibitor: strong in vivo bioactivities
